Experimental data: patent publication US20260184693A1, “INHIBITORS OF SOLUTE CARRIER FAMILY 6A MEMBER 19 (SLC6A19) AND METHODS OF USE THEREOF” (Maze Therapeutics, Inc., priority 2022, published 2026)

Target: T1, human SLC6A19 (Homo sapiens, UniProt Q695T7)
T1 construct: expressed in transfected cells
T1 sequence (Q695T7 1-634): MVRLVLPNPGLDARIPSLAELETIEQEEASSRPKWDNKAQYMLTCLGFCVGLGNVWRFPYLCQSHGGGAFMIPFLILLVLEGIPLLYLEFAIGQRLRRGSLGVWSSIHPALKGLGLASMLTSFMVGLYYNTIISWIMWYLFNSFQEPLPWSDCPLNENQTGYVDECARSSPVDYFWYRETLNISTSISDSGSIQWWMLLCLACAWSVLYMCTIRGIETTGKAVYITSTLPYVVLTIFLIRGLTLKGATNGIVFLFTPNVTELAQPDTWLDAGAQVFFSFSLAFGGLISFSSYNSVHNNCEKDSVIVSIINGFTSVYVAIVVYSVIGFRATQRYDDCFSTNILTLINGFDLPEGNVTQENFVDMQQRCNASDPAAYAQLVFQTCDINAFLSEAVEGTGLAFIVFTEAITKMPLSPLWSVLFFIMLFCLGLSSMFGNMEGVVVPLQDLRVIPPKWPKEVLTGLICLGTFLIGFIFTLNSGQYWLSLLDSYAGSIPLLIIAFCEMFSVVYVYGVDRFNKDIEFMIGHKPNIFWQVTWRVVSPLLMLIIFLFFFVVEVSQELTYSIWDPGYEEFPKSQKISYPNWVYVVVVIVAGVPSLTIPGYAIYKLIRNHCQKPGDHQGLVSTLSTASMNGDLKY
T1 sequence (Q9HBJ8 15-222 partner): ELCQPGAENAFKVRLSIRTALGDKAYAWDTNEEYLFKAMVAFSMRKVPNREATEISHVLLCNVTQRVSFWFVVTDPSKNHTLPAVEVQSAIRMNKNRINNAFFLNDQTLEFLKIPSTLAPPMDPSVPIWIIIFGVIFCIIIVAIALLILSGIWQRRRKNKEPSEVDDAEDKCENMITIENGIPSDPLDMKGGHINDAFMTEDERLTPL
Experiment: Example B-1: L-[3H]leucine uptake, liquid scintillation, in CHO cells with doxycycline-inducible expression of human SLC6A19 and TMEM27
Type: cell-based
Settings: read-out: SLC6A19_Radioligand Uptake Assay IC50
Procedure: CHO cells with doxycycline-inducible expression of human SLC6A19 and TMEM27 were maintained in T150 cell culture treated flasks using cell culture media, which consisted of 1×DMEM/F12 (Gibco, 11330057), 10% Tet System-Approved FBS (Gibco, A4736401), 100 U/mL Penicillin-Streptomycin (Gibco, 15140122), 1×GlutaMAX™ Supplement (Gibco, 35050061), 1 mM Sodium Pyruvate (Gibco, 11360070), 1.1 mg/mL Sodium Bicarbonate (Gibco, 25080094), 5 μg/mL Blasticidin (InvivoGen, ant-bl-1), 150 μg/mL Hygromycin B Gold (InvivoGen, ant-hg-5), and 500 μg/mL G418 (Sigma-Aldrich, G8168-100 mL). In preparation for the assay, this media was aspirated and 5 mL of TryμLE™ Express Enzyme (Gibco, 12605010) was added to each flask to initiate cell dissociation. The flasks were then incubated (humidified, 37° C. with 5% CO2) for 2 minutes. After incubation, 10 mL of pre-warmed cell culture media was added to each flask. The cell suspension was collected and centrifuged for 5 minutes at 200xg.
The supernatant was aspirated and the pellet was resuspended in 5 mL pre-warmed cell culture media. The resuspended cells were counted using the Countess Cell Counting Chamber (Invitrogen) and the cell concentration of the suspension was readjusted to 1 million live cells/mL using pre-warmed cell culture media. 25 uL/well (25,000 cells/well) of readjusted cell suspension was dispensed into Poly-D-Lysine 384-well white/clear plates (Corning, 354660) using a MultiDrop Combi (Thermo Electron Corp). To induce expression of Human SLC6A19 and TMEM27, 25 uL/well of cell culture media containing 2 μg/mL doxycycline was added to the first 23 columns of each plate resulting in a final concentration of […] doxycycline. 25 μL/well of cell culture media was added to the last column of each plate, to act as negative control wells for Human SLC6A19 and TMEM27 expression. Assay plates were then incubated (humidified, 37° C. with 5% CO2) for 18 hours. After incubation, the media was aspirated and the wells were washed 4 times with pre-warmed HBSS (Sigma-Aldrich, H8264-1L) using an Apricot S-Pipette S2 (Apricot Designs), such that 5 uL/well HBSS was remaining at the end of each wash. […] At this step, the final in-well DMSO concentration in the assay plate is 0.5%. All compounds were plated in a duplicate 8-point dilution series that consisted of 3-fold dilutions. […] Afterwards, 15 uL/well of 3.2 mM hot:cold leucine solution (1:15000 ratio of L-[3,4,5-3H(N)] Leucine (Perkin Elmer, NET460001MC) to L-Leucine (Sigma-Aldrich, L8912-25G) diluted with HBSS (Sigma-Aldrich, H8264-1L)) was added using the Viaflo 384 (Integra), for a final concentration of 1.6 mM hot:cold leucine solution. The plates were then incubated (humidified, 37° C. with 5% CO2) for 20 minutes to conduct the uptake reaction. Immediately after the incubation, the plates were washed 4 times with HBSS (Sigma-Aldrich, H8264-1L) using the ELx405 Microplate Washer (Biotek) to terminate the uptake reaction. After the washes, 50 uL/well Ultima Gold Scintillation Cocktail (Perkin Elmer, 6013326) was added to each well using the Viaflo 384 (Integra). The plates were then incubated (humidified, 37° C. with 5% CO2) on a plate shaker at 200 rpm for 2 hours. After incubation, the plates were removed from the shaker and kept at room temperature for 15 minutes.
Liquid scintillation analysis was performed using the MicroBeta2 Microplate Counter (Perkin Elmer). Activity (%) was derived by normalizing the average of positive control compound treated wells to 0% and the average of DMSO (negative control) wells to 100%. Collaborative Drug Discovery software was used for graphing data.

Row | SMILES | IC50 [nM]
1 | CC(=O)N1C[C@H](N(C)C(=O)NCc2cc3cc(Cl)ccc3[nH]2)CC[C@@H]1C (single isomer, unassigned) [Compound 192, 1-((3R,6S or 3S,6R)-1-acetyl-6-methylpiperidin-3-yl)-3-((5-chloro-1H-indol-2-yl)methyl)-1-methylurea] | 558
2 | CN(C(=O)NCc1cc2cc(Cl)ccc2[nH]1)[C@@H]1CCCN(C(=O)c2cc(F)ccn2)C1 [Compound 111, (R)-3-((5-chloro-1H-indol-2-yl)methyl)-1-(1-(4-fluoropicolinoyl)piperidin-3-yl)-1-methylurea] | 1320
3 | CN(C(=O)NCc1cc2cc(Cl)ccc2[nH]1)[C@@H]1CCCN(C(=O)C2CCOC2)C1 (stereo partly drawn) [Compound 112, 3-((5-chloro-1H-indol-2-yl)methyl)-1-methyl-1-((3R)-1-(tetrahydrofuran-3-carbonyl)piperidin-3-yl)urea] | 367
4 | CN(C(=O)NCc1cc2cc(Cl)ccc2[nH]1)[C@@H]1CCCN(C(=O)c2nn(C)cc2F)C1 [Compound 113, (R)-3-((5-chloro-1H-indol-2-yl)methyl)-1-(1-(4-fluoro-1-methyl-1H-pyrazole-3-carbonyl)piperidin-3-yl)-1-methylurea] | 494
5 | CN(C(=O)NCc1cc2cc(Cl)ccc2[nH]1)[C@@H]1CCCN(C(=O)c2ccc(F)cn2)C1 [Compound 114, (R)-3-((5-chloro-1H-indol-2-yl)methyl)-1-(1-(5-fluoropicolinoyl)piperidin-3-yl)-1-methylurea] | 847
6 | CN(C(=O)NCc1cc2cc(Cl)ccc2[nH]1)[C@@H]1CCCN(C(=O)c2cc(F)n(C)n2)C1 [Compound 115, (R)-3-((5-chloro-1H-indol-2-yl)methyl)-1-(1-(5-fluoro-1-methyl-1H-pyrazole-3-carbonyl)piperidin-3-yl)-1-methylurea] | 688
7 | CN(C(=O)NCc1cc2cc(Cl)ccc2[nH]1)[C@@H]1CCCN(C(=O)C2CCO2)C1 (stereo partly drawn) [Compound 116, 3-((5-chloro-1H-indol-2-yl)methyl)-1-methyl-1-((3R)-1-(oxetane-2-carbonyl)piperidin-3-yl)urea] | 515
8 | CN(C(=O)NCc1cc2cc(Cl)ccc2[nH]1)[C@@H]1CCCN(C(=O)Cn2cc(CCN)nn2)C1 [Compound 134, (R)-1-(1-(2-(4-(2-aminoethyl)-1H-1,2,3-triazol-1-yl)acetyl)piperidin-3-yl)-3-((5-chloro-1H-indol-2-yl)methyl)-1-methylurea] | 3770
9 | CN(C(=O)NCc1cc2cc(Cl)ccc2[nH]1)[C@@H]1CCCN(C(=O)Cc2cnco2)C1 [Compound 205, (R)-3-((5-chloro-1H-indol-2-yl)methyl)-1-methyl-1-(1-(2-(oxazol-5-yl)acetyl)piperidin-3-yl)urea] | 444
10 | CC(=O)N1CCC[C@@H](N(C)C(=O)NCCc2ccc(Cl)c(-c3cc4ccccc4[nH]3)c2)C1 [Compound 206, (R)-1-(1-acetylpiperidin-3-yl)-3-(4-chloro-3-(1H-indol-2-yl)phenethyl)-1-methylurea] | 441
11 | CC(=O)N1CCC[C@@H](N(C)C(=O)NCCc2cc(-c3cc4ccccc4[nH]3)c(Cl)cc2Cl)C1 [Compound 207, (R)-1-(1-acetylpiperidin-3-yl)-3-(2,4-dichloro-5-(1H-indol-2-yl)phenethyl)-1-methylurea] | 715

Continued, values first:

Row | IC50 [nM] | SMILES
12 | 608 | CC1CC(C(=O)N2CCC[C@@H](N(C)C(=O)NCc3cc4cc(Cl)ccc4[nH]3)C2)C1 (stereo partly drawn) [Compound 117, (R)-3-((5-chloro-1H-indol-2-yl)methyl)-1-methyl-1-(1-(3-methylcyclobutane-1-carbonyl)piperidin-3-yl)urea]
13 | 1620 | CN(C(=O)NCc1cc2cc(Cl)ccc2[nH]1)[C@@H]1CCCN(C(=O)C2(C)CCC2)C1 [Compound 118, (R)-3-((5-chloro-1H-indol-2-yl)methyl)-1-methyl-1-(1-(1-methylcyclobutane-1-carbonyl)piperidin-3-yl)urea]

Target: T1, human SLC6A19
Experiment: Example B2: 13C6,15N-isoleucine uptake, RapidFire mass spectrometry, in CHO cells with doxycycline-inducible expression of human SLC6A19 and TMEM27
Type: cell-based
Settings: read-out: SLC6A19_RapidFire Uptake Assay IC50
Outline: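 Labelled isoleucine (13C6,15N; 2 mM added) was given 20 min at 37 °C, following a 20-min compound pre-treatment (10-point 2-fold series, duplicate). Cells were doxycycline-induced CHO co-expressing human SLC6A19 and TMEM27. Intracellular label was quantified by RapidFire-MS peak areas against a 13C-leucine standard.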

Row | SMILES | IC50 [nM]
14 | COc1ccc2[nH]c(CNC(=O)N(C)[C@@H]3CCCN(C(C)=O)C3)cc2c1 [Compound 224, (R)-1-(1-acetylpiperidin-3-yl)-3-((5-methoxy-1H-indol-2-yl)methyl)-1-methylurea] | 1650
15 | CC(=O)N1CCC[C@@H](N(C)C(=O)NCc2ccc3c(C)c(C)[nH]c3c2)C1 [Compound 225, (R)-1-(1-acetylpiperidin-3-yl)-3-((2,3-dimethyl-1H-indol-6-yl)methyl)-1-methylurea] | 2960
16 | CC(=O)N1CCC[C@@H](N(C)C(=O)NCc2cc3cc(Cl)c(C)cc3[nH]2)C1 [Compound 226, (R)-1-(1-acetylpiperidin-3-yl)-3-((5-chloro-6-methyl-1H-indol-2-yl)methyl)-1-methylurea] | 209
17 | CC(=O)N1CCC[C@@H](N(C)C(=O)NCc2cc3cc(Cl)cc(C)c3[nH]2)C1 [Compound 227, (R)-1-(1-acetylpiperidin-3-yl)-3-((5-chloro-7-methyl-1H-indol-2-yl)methyl)-1-methylurea] | 327
18 | CC(=O)N1CCC[C@@H](N(C)C(=O)NCc2cc3cc(C#N)ccc3[nH]2)C1 [Compound 228, (R)-1-(1-acetylpiperidin-3-yl)-3-((5-cyano-1H-indol-2-yl)methyl)-1-methylurea] | 2210
19 | CC(=O)N1CCC[C@@H](N(C)C(=O)NCc2[nH]c3ccc(Cl)cc3c2C)C1 [Compound 229, (R)-1-(1-acetylpiperidin-3-yl)-3-((5-chloro-3-methyl-1H-indol-2-yl)methyl)-1-methylurea] | 108
20 | CC(=O)N1CCC[C@@H](N(C)C(=O)NCc2cc3cc(Cl)cc(CO)c3[nH]2)C1 [Compound 230, (R)-1-(1-acetylpiperidin-3-yl)-3-((5-chloro-7-(hydroxymethyl)-1H-indol-2-yl)methyl)-1-methylurea] | 12800
21 | CC(=O)N1CCC[C@@H](N(C)C(=O)NCc2cc3cc(Cl)cc(O)c3[nH]2)C1 [Compound 231, (R)-1-(1-acetylpiperidin-3-yl)-3-((5-chloro-7-hydroxy-1H-indol-2-yl)methyl)-1-methylurea] | 1060
